{
  "source": "paper PMC2762440",
  "about": "(Journal of medicinal chemistry, 2009)",
  "key": {"ICR mice": {"test_system": "ICR mice", "assay": "Forced-swim test in ICR mice", "assay_type": "in vivo, mouse", "settings": "for immobility in the forced-swim test vs vehicle: 3 mg/kg, P < 0.05; for duration of immobility in the forced-swim test: doses of 0.3 and 3 mg/kg"}, "Balb/c mice": {"test_system": "Balb/c mice", "assay": "Forced-swim test in Balb/c mice", "assay_type": "in vivo, mouse", "settings": "for duration of immobility in the forced-swim test: acute, i.p. 30 min prior; for immobility in the forced-swim test vs vehicle: subchronic, i.p. 23, 5 and 1 hr prior"}, "Human PDE4D3": {"biological_target": "Human PDE4D3 (Homo sapiens, UniProt Q08499)", "sequence (Q08499 1-673 isoform Q08499-2)": "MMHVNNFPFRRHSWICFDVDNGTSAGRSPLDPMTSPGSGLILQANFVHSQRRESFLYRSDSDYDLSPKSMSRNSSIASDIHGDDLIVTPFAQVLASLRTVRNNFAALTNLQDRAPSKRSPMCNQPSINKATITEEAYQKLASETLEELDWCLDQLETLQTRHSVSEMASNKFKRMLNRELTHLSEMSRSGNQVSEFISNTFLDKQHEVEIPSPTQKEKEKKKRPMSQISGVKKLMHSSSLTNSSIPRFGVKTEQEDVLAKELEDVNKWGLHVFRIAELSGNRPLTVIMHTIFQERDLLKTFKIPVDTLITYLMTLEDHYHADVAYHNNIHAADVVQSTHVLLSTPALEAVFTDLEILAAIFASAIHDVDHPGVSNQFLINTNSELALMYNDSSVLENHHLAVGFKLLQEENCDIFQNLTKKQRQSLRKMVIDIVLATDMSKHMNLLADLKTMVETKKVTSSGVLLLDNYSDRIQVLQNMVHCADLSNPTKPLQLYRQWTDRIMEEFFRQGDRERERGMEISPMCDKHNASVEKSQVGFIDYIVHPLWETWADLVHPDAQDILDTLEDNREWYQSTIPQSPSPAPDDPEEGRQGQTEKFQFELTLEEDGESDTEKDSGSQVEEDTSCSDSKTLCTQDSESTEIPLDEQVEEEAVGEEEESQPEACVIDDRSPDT", "assay": "Inhibition of cAMP hydrolysis by recombinant PDE4D3", "assay_type": "biochemical", "settings": "read-out: Human PDE4D3 Ki, recombinant enzyme"}, "[1]": {"assay": "Human liver microsome stability assay", "assay_type": "in vitro ADME", "settings": "human liver microsomes + NADPH, 40 µM compound, 37 °C"}, "[2]": {"assay": "Mouse liver microsome stability assay", "assay_type": "in vitro ADME", "settings": "mouse liver microsomes + NADPH, 40 µM compound, 37 °C"}, "[3]": {"settings": "ICR mice, acute, i.p. 30 min prior"}},
  "data": [
    {"smiles": "COc1ccc(F)cc1CCC1CCC(CCN)O1", "note": "(stereo not drawn) [Compound 14, 2-{5-[3-(5-Fluoro-2-methoxy-phenyl)-ethyl]-tetrahydro-furan-2-yl}-ethylamine]", "values": [
      {"measurement": "immobility in the forced-swim test", "setting": "ICR mice; ICR mice, acute, i.p. 30 min prior, 10 and 30 mg/kg", "result": "tended to decrease immobility, but this effect was not statistically significant"},
      {"measurement": "duration of immobility in the forced-swim test", "setting": "Balb/c mice; 10 mg/kg", "result": "did not markedly alter the duration of immobility"},
      {"measurement": "immobility in the forced-swim test vs vehicle", "setting": "Balb/c mice; 10 mg/kg", "result": "did not change immobility"}
    ]},
    {"smiles": "COc1ccc(F)cc1CCCC1CCC(CCN)O1", "note": "(stereo not drawn) [Compound 15, 2-{5-[3-(5-Fluoro-2-methoxy-phenyl)-propyl]-tetrahydro-furan-2-yl}-ethylamine]", "values": [
      {"measurement": "duration of immobility in the forced-swim test", "setting": "Balb/c mice; 10 mg/kg", "result": "did not markedly alter the duration of immobility"},
      {"measurement": "immobility in the forced-swim test vs vehicle", "setting": "Balb/c mice; 1 mg/kg", "result": "did not change immobility"}
    ]},
    {"smiles": "COc1ccc(C2=NNC(=O)C3CC=CCC23)cc1OC", "note": "(stereo not drawn) [Compound 19, 4-(3,4-Dimethoxy-phenyl)-4a,5,8,8a-tetrahydro-2H-phthalazin-1-one, reference compound]", "values": [
      {"measurement": "Ki", "setting": "Human PDE4D3", "result": 6.3, "unit": "nM"},
      {"measurement": "immobility in the forced-swim test vs vehicle", "setting": "ICR mice; [3]", "result": "significantly decreased immobility"},
      {"measurement": "duration of immobility in the forced-swim test", "setting": "ICR mice; [3]", "result": "decreased duration of immobility in a dose-dependent manner"}
    ]},
    {"smiles": "COc1ccc(F)cc1CCC1CCC(CCNCCCCCN2N=C(c3ccc(OC)c(OC)c3)[C@H]3CC=CC[C@H]3C2=O)O1", "note": "(stereo partly drawn) [Compound 21]", "values": [
      {"measurement": "HLM t1/2", "setting": "[1]", "result": "not detectably metabolized"},
      {"measurement": "immobility in the forced-swim test vs vehicle", "setting": "ICR mice; [3]", "result": "significantly decreased immobility"},
      {"measurement": "duration of immobility in the forced-swim test", "setting": "ICR mice; [3]", "result": "decreased duration of immobility in a dose-dependent manner"},
      {"measurement": "immobility in the forced-swim test vs vehicle", "setting": "Balb/c mice; 1 mg/kg", "result": "did not change immobility"}
    ]},
    {"smiles": "COc1ccc(F)c(CCCC2CCC(CCNCCCCCN3N=C(c4ccc(OC)c(OC)c4)[C@H]4CC=CC[C@H]4C3=O)O2)c1", "note": "(stereo partly drawn) [Compound 22]", "values": [
      {"measurement": "HLM t1/2", "setting": "[1]", "result": "No detectable metabolic instability"}
    ]},
    {"smiles": "CNCCC1CCC(CCc2cc(F)ccc2OC)O1", "note": "(stereo not drawn) [Compound 24]", "values": [
      {"measurement": "MLM t1/2", "setting": "[2]", "result": 58.5, "unit": "min"}
    ]},
    {"smiles": "COc1ccc(C2CNC(=O)C2)cc1OC1CCCC1", "note": "(stereo not drawn) [Rolipram, reference compound]", "values": [
      {"measurement": "effect in the forced-swim test", "setting": "ICR mice; acute treatment 0.5 mg/kg, data not shown", "result": "did not alter FST behavior"}
    ]}
  ]
}
